Consider 21 compounds from US12110293B2, “Substituted triazolo quinoxaline derivatives” (GRÜNENTHAL GMBH, priority 2018, dated 2024).

For this test, the target named is T1, glucocorticoid receptor (Homo sapiens, UniProt P04150).
T1 construct: expressed in transfected cells
T1 sequence (P04150 524-758 limits assumed): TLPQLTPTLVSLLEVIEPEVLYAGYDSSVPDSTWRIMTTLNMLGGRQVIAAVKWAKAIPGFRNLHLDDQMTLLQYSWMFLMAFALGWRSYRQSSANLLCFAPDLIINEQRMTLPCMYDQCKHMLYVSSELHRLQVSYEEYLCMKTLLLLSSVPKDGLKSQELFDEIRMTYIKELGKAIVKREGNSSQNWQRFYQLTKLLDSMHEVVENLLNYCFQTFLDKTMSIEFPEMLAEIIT
The test is described as follows: Agonistic mode of action on the glucocorticoid receptor (CHO-Gal4/GR luciferase reporter cell line). It counts as cell-based. To be noted: range class observed in the agonistic assay or the antagonistic assay (CHO-Gal4/GR reporter cells); table does not say which mode applies per example. The text has this: Potential selective glucocorticoid receptor modulators of this intervention can be tested for modulation of the activity of the glucocorticoid receptor using cell-based assays. These assays involve a Chinese hamster ovary (CHO) cell line which contains fragments of the glucocorticoid receptor as well as fusion proteins. The glucocorticoid receptor fragments used are capable of binding the ligand (e.g. beclomethasone) to identify molecules that compete for binding with glucocorticoid receptor ligands. In more detail, the glucocorticoid receptor ligand binding domain is 25 fused to the DNA binding domain (DBD) of the transcriptionfactor GAL4 (GAL4 DBD-GR) and is stably integrated into a CHO cell line containing a GAL4-UAS-Luciferase reporter construct. […] After cell lysis the luminescence that is produced by luciferase after addition of the substrate is detected and EC50 or IC50 values can be calculated. Engagement of molecules which induce gene expression via glucocortocoid receptor binding to the DNA leads to expression of the luciferase gene under the control of the fusion protein GAL4 DBD-GR and therefore to a dose-dependent increase of the luminescence signal. Binding of molecules which repress beclomethasone-induced gene expression of the luciferase gene under the control of the fusion protein GAL4 DBD-GR leads to a dose-dependent reduction of the luminescence signal.
Biological Assays Agonistic Mode of Action on the Glucocorticoid Receptor
The reporter cell line CHO-Gal4/GR consisted of a Chinese hamster ovary (CHO) cell line (Leibniz Institute DSMZ—German Collection of Microorganisms and Cell CuItures GmbH: ACC-110) containing a firefly luciferase gene under the control of the GR ligand binding domain fused to the DNA binding domain (DBD) of GAL4 (GAL4 DBD-GR) stably integrated into CHO cells. This cell line was established by stable transfection of CHO cells with a GAL4-UAS-Luciferase reporter construct. In a subsequent step the ligand binding domain of the GR cloned into pIRES2-EGFP-GAL4 containing the DNA binding domain of GAL4 from pFA-AT2 was transfected. This fusion construct activated firefly luciferase expression under the control of a multimerized GAL4 upstream activation sequence (UAS). The signal of the emitted luminescence was recorded by the FLIPR^TETRA. This allowed for specific detection of ligand-induced activation of the GR and therefore for the identification of compounds with agonistic properties. The GAL4/UAS reporter was premixed with a vector that constitutively expressed Renilla luciferase, which served as an internal positive control for transfection efficiency.
The complete culture medium for the assay was: • DMEM F-12 (1:1) MIXTURE (LONZA cat. N°: BE04-687F/U1) 500 mL • 5 mL of 100 mM Sodium Pyruvate (LONZA cat. N°: BE12-115E) • 25 mL of 7.5% Sodium Bicarbonate (LONZA cat. N° BE17-613E) • 6.5 mL of 1 M Hepes (LONZA cat. N°: BE17-737E) • 5 mL of 100× Penicillin/Streptomycin (LONZA cat. N° DE17-602E) • 50 mL of Fetal Bovine Serum (Euroclone cat. N° ECS 0180L) • 0.25 mL of 10 mg/mL Puromycin (InvivoGen cat.: ant-pr-1) • 0.5 mL of 100 mg/mL Zeocin (InvivoGen cat.: ant-zn-1)
Cryo-preserved CHO-Gal4/GR cells were suspended in complete medium and 5000 cells/25 μl/well were seeded into the wells of 384-well polystyrene assay plates (Thermo Scientific, cat. #4332) and cultured at 37° C., 5% CO2 and 95% humidity. After 24 hours growth medium was carefully removed and replaced by 30 μl Opti-MEM (GIBCO, cat. #31985062) as assay buffer. To test the compounds an 8-point half-log compound dilution curve was generated in 100% DMSO starting from a 2 mM stock and compounds were then diluted 1:50 in Opti-MEM. 10 μl of compounds were then added to the wells containing 30 μl Opti-MEM resulting in a final assay concentration range from 10 μM to 0.003 μM in 0.5% DMSO. Compounds were tested at 8 concentrations in quadruplicate data points.
On the technique in general: A reporter such as luciferase makes a cellular process visible.

Some results are limits rather than exact numbers.

`CCc1nnc2n1-c1c(cc(F)c(-c3cccc4c3cnn4C3CC3)c1C)NC2(C)C` [Example 242, 8-(1-Cyclopropyl-1H-indazol-4-yl)-1-ethyl-7-fluoro-4,4,9-trimethyl-5H-[1,2,4]triazolo[4,3-a]quinoxaline] displayed an IC50 or EC50 (agonist or antagonist mode not specified) of 1000 to 15000 nM. Then `Cc1c(-c2cc(C#N)cc3[nH]ccc23)c(F)cc2c1-n1c(C)nnc1C(C)(C)N2` [Example 494, 4-(7-Fluoro-1,4,4,9-tetramethyl-5H-[1,2,4]triazolo[4,3-a]quinoxalin-8-yl)-1H-indole-6-carbonitrile], with 100 to 1000 nM. Compound `Cc1nnc2n1-c1c(cc(F)c(-c3cccc4c3ccn4S(=O)(=O)CC3CC3)c1F)NC2(C)C` [Example 210, 8-[1-(Cyclopropyl-methylsulfonyl)-1H-indol-4-yl]-7,9-difluoro-1,4,4-trimethyl-5H-[1,2,4]triazolo[4,3-a]quinoxaline] had an IC50 or EC50 (agonist or antagonist mode not specified) of less than 100 nM. The figure for `Cc1c(-c2cc(F)cc3c(CC(F)(F)F)c[nH]c23)c(F)cc2c1-n1c(C)nnc1C(C)(C)N2` [Example 23, 7-fluoro-8-(5-fluoro-3-(2,2,2-trifluoroethyl)-1H-indol-7-yl)-1,4,4,9-tetramethyl-4,5-dihydro-[1,2,4]triazolo[4,3-a]quinoxaline] is less than 100 nM.

`Cc1cc2c(c(F)c1-c1cccc3c1ccn3CC(F)F)-n1c(C)nnc1C(C)(C)N2` [Example 392, 8-[1-(2,2-Difluoro-ethyl)-1H-indol-4-yl]-9-fluoro-1,4,4,7-tetramethyl-5H-[1,2,4]triazolo[4,3-a]quinoxaline] returned an IC50 or EC50 (agonist or antagonist mode not specified) of 1000 to 15000 nM. The figure for `Cc1nnc2n1-c1c(cc(F)c(-c3cccc4c(C(F)(F)F)c[nH]c34)c1F)NC2(C)C` [Example 10, 7,9-difluoro-1,4,4-trimethyl-8-(3-(trifluoromethyl)-1H-indol-7-yl)-4,5-dihydro-[1,2,4]triazolo[4,3-a]quinoxaline] is 100 to 1000 nM. `Cc1cc2c(c(C)c1-c1cccc3c1ccn3CC(F)F)-n1c(C)nnc1C(C)(C)N2` [Example 324, 8-[1-(2,2-Difluoro-ethyl)-1H-indol-4-yl]-1,4,4,7,9-pentamethyl-5H-[1,2,4]triazolo[4,3-a]quinoxaline]: the IC50 or EC50 (agonist or antagonist mode not specified) is 100 to 1000 nM. Then `Cc1cc(-c2c(F)cc3c(c2C)-n2c(C)nnc2C(C)(C)N3)c2ccn(S(C)(=O)=O)c2c1` [Example 493, 7-Fluoro-1,4,4,9-tetramethyl-8-(6-methyl-1-methylsulfonyl-1H-indol-4-yl)-5H-[1,2,4]triazolo[4,3-a] quinoxaline], with less than 100 nM; and `Cc1nnc2n1-c1c(cc(F)c(-c3cccc4c3ccn4CC3CC3)c1F)NC2(C)C` [Example 202, 8-[1-(Cyclopropyl-methyl)-1H-indol-4-yl]-7,9-difluoro-1,4,4-trimethyl-5H-[1,2,4]triazolo[4,3-a]quinoxaline], with less than 100 nM.

Compound `COCCn1ccc2c(-c3c(F)cc4c(c3C(F)F)-n3c(C)nnc3C(C)(C)N4)cccc21` [Example 292, 9-(Difluoro-methyl)-7-fluoro-8-[1-(2-methoxy-ethyl)-1H-indol-4-yl]-1,4,4-trimethyl-5H-[1,2,4]triazolo[4,3-a]quinoxaline] came in with an IC50 or EC50 (agonist or antagonist mode not specified) of 100 to 1000 nM. As to `COc1c(-c2cc(C)cc3c2ccn3S(C)(=O)=O)c(F)cc2c1-n1c(C)nnc1C(C)(C)N2` [Example 477, 7-Fluoro-9-methoxy-1,4,4-trimethyl-8-(6-methyl-1-methylsulfonyl-1H-indol-4-yl)-5H-[1,2,4]triazolo[4,3-a]quinoxaline], the IC50 or EC50 (agonist or antagonist mode not specified) lay within 100 to 1000 nM. Then `Cc1c(-c2cc(F)cc3c(C4CC4)c[nH]c23)c(F)cc2c1-n1c(C)nnc1C(C)(C)N2` [Example 33, 8-(3-cyclopropyl-5-fluoro-1H-indol-7-yl)-7-fluoro-1,4,4,9-tetramethyl-4,5-dihydro-[1,2,4]triazolo[4,3-a]quinoxaline], with less than 100 nM; and `COc1c(-c2cccc3c2cnn3S(C)(=O)=O)c(F)cc2c1-n1c(C)nnc1C(C)(C)N2` [Example 342, 7-Fluoro-9-methoxy-1,4,4-trimethyl-8-(1-methylsulfonyl-1H-indazol-4-yl)-5H-[1,2,4]triazolo[4,3-a] quinoxaline], with 1000 to 15000 nM; and `Cc1nnc2n1-c1c(cc(F)c(-c3cc(F)cc4c3ccn4S(C)(=O)=O)c1F)NC2(C)C` [Example 3, 7,9-difluoro-8-(6-fluoro-1-(methylsulfonyl)-1H-indol-4-yl)-1,4,4-trimethyl-4,5-dihydro-[1,2,4]triazolo[4,3-a]quinoxaline], with less than 100 nM. As to `Cc1nnc2n1-c1c(cc(OC(F)F)c(-c3cccc4[nH]c(C(F)(F)F)cc34)c1F)NC2(C)C` [Example 252, 7-(Difluoro-methoxy)-9-fluoro-1,4,4-trimethyl-8-[2-(trifluoromethyl)-1H-indol-4-yl]-5H-[1,2,4]triazolo[4,3-a]quinoxaline], the IC50 or EC50 (agonist or antagonist mode not specified) is 100 to 1000 nM. In turn, `Cc1nnc2n1-c1c(cc(F)c(-c3cc(F)cc4c3ccn4S(C)(=O)=O)c1C(F)F)NC2(C)C` [Example 390, 9-(Difluoro-methyl)-7-fluoro-8-(6-fluoro-1-methylsulfonyl-1H-indol-4-yl)-1,4,4-trimethyl-5H-[1,2,4]triazolo[4,3-a]quinoxaline] gave an IC50 or EC50 (agonist or antagonist mode not specified) of less than 100 nM.

Compound `CCS(=O)(=O)n1ccc2c(-c3c(F)cc4c(c3F)-n3c(C)nnc3C(C)(C)N4)cc(F)cc21` [Example 18, 8-(1-(ethylsulfonyl)-6-fluoro-1H-indol-4-yl)-7,9-difluoro-1,4,4-trimethyl-4,5-dihydro-[1,2,4]triazolo[4,3-a]quinoxaline] came in with an IC50 or EC50 (agonist or antagonist mode not specified) of 100 to 1000 nM. The figure for `COCCn1ccc2c(-c3c(Cl)cc4c(c3F)-n3c(C)nnc3C(C)(C)N4)cccc21` [Example 280, 7-Chloro-9-fluoro-8-[1-(2-methoxy-ethyl)-1H-indol-4-yl]-1,4,4-trimethyl-5H-[1,2,4]triazolo[4,3-a]quinoxaline] is 1000 to 15000 nM. Then `COC(=O)CCn1ccc2c(-c3c(F)cc4c(c3F)-n3c(C)nnc3C(C)(C)N4)cccc21` [Example 219, 3-[4-(7,9-Difluoro-1,4,4-trimethyl-5H-[1,2,4]triazolo[4,3-a]quinoxalin-8-yl)-1H-indol-1-yl]-propionic acid methyl ester], with 1000 to 15000 nM; and `Cc1nnc2n1-c1c(cc(F)c(-c3cccc4[nH]c(C(F)(F)F)cc34)c1F)NC2(C)C` [Example 225, 7,9-Difluoro-1,4,4-trimethyl-8-[2-(trifluoromethyl)-1H-indol-4-yl]-5H-[1,2,4]triazolo[4,3-a]quinoxaline], with less than 100 nM. Consider `CCc1c(-c2cc(F)cc3c2cnn3S(C)(=O)=O)c(F)cc2c1-n1c(C)nnc1C(C)(C)N2` [Example 52, 9-Ethyl-7-fluoro-8-(6-fluoro-1-methylsulfonyl-1H-indazol-4-yl)-1,4,4-trimethyl-5H-[1,2,4]triazolo[4,3-a]quinoxaline], for which the IC50 or EC50 (agonist or antagonist mode not specified) is less than 100 nM.
